Consider 1 molecule from US9968626B2, “Method for treating obesity” (Rhamnopharma Inc., priority 2011, dated 2018).

A short description of this experiment: Body weight of allergic-rhinitis-sensitized Balb/C mice after intranasal rhamnolipid doses (Example 1). In kind it is in vivo. To be noted: 0.5% solution in saline, 5 μl per nostril at two time points on Day 37 (total 20 μl). The text has this: Originally, the objective of this study was to determine the effects of treatment with three different pharmaceutical formulations of rhamnolipids within the context of an allergic rhinitis study in mice. However, the weight loss effects due to treatment with the various rhamnolipids were unexpectedly discovered during the course of this study. Materials Animal: Balb/C mice were used in this study and were eight weeks old. The treatment groups and the placebo group were each composed of 10 mice. Allergenization was performed in a similar fashion as reported in the literature. Sensitization Materials: The following were used to sensitize and induce allergic rhinitis in the mice:
Mice were sensitized once-weekly with four intraperitoneal injections of OVA/Alum (Day 0, […], 14 and 21). From Day 22-39, anesthetized mice were administered once-daily doses of the OVA stock solution instilled in each nostril.
On Day 37, mice were assigned to one of three rhamnolipid treatment groups or a placebo group. The rhamnolipid treatment groups received a rhamnolipid mixture containing RPI-100, RPI-200, or RPI-300. […] Body weights of the mice were measured and recorded on Days 35, 37, and 39 as part of a standard animal safety observation protocol. […]

Regarding `CCCCCCCC(CC(=O)O)OC(=O)CC(CCCCCCC)O[C@@H]1O[C@@H](C)[C@H](O)[C@@H](O)[C@H]1O` (stereo partly drawn) [RPI-200, L-rhamnosyl-β-hydroxydecanoyl-β-hydrocydecanoate], the “body weight, 2 days post-treatment (Day 39) compared with 2 days pre-treatment (Day 35), versus placebo” value is listed as “statistically significant reduction in body weight”.
